The series has as its system physiopathological hair loss of unknown cause (patients suffering from alopecia). As to the kind of experiment: Double blind clinical trial on two hundred patients suffering from alopecia. Type of series: in vivo, human. As for the experimental part: Clinical Trial (Double Blind) on Two Hundred Patients Suffering from Alopecia
The action of the compound according to the invention, produced as described in Example 1, was assessed on a sample population of two hundred people, half of whom were of the female sex. All the persons included in the sample had been affected for at least four months by physiopathological hair loss of unknown cause.
A double blind trial was set up, in which one hundred patients were administered with a solution containing the compound according to the invention in bidistilled water and one hundred received a placebo solution. The solution according to the invention contained as excipients: sodium hydroxide, benzyl benzoate and benzalkonium chloride.

As to `CC1(CCC(=O)O)C(=O)CCC2C1C(O)CC1(C)C2CCC1(O)C(=O)CO` (stereo not drawn) [compound according to the invention, 3-[3,5-dihydroxy-3-(2-hydroxy-acetyl)-3a,6-dimethyl-7-oxo-dodecahydro-cyclo-penta[α]naphtalen-6-yl]-propionic acid], the “patients with good hair regrowth observed” value (at the end of the trial, solution of the compound in bidistilled water, one hundred treated patients) came out at 38%. Also, the adverse side effects entry (even after many months of treatment) is given as “total absence of adverse side effects”. The “subjects in whom hair loss was arrested” value (within the first week of treatment, solution of the compound in bidistilled water, one hundred treated patients, double blind vs placebo) turned out to be 94%.

Source of the values: US20100324142A1, “HYDROCORTISONE DERIVATIVES AND USE THEREOF FOR THERAPEUTIC OR COSMETIC INDICATIONS” (priority 2007, published 2010).
